In the NIST ThermoML archive (doi:10.1016/j.jct.2010.04.020):

Columns and labels:
[1] = for mass density: 101.33 kPa, Liquid, Vibrating tube method; for Triple point temperature: Crystal
[2] = Molar enthalpy of transition or fusion; conditions: Crystal; DSC

CCCC[n+]1cccc2ccccc21.O=S(=O)([N-]S(=O)(=O)C(F)(F)F)C(F)(F)F [1-butylquinolinium bis((trifluoromethyl)sulfonyl)amide]
[1]
Conditions | Triple point temperature [K] | mass density [kg/m3]
333.15 K | – | 1416.26
343.15 K | – | 1407.38
353.15 K | – | 1398.52
363.15 K | – | 1389.69
DTA | 329.12 | –
visual observation | 329.62 | –

Conditions | Molar enthalpy of transition or fusion [kcal/mol]
[2] | 10.5
